Where two headings read alike, the source gives them in different places.
How the values were obtained:
E. coli SPase = E. coli SPase (Escherichia coli, UniProt P00803); assay: Biochemical activity
S. aureus SPase = S. aureus SPase (Staphylococcus aureus, UniProt P0A070); assay: Biochemical activity
[1] = test system: S. aureus (MSSA) strain 8325; details: wild type MSSA strain 8325; included for reference; cited from earlier work
[2] = test system: methicillin resistant S. aureus (MRSA) strain USA300; details: included for reference, cited from earlier work
E. coli (MG1655) = details: wild type MG1655; included for reference; cited from earlier work

Sequence of E. coli SPase (P00803 whole entry): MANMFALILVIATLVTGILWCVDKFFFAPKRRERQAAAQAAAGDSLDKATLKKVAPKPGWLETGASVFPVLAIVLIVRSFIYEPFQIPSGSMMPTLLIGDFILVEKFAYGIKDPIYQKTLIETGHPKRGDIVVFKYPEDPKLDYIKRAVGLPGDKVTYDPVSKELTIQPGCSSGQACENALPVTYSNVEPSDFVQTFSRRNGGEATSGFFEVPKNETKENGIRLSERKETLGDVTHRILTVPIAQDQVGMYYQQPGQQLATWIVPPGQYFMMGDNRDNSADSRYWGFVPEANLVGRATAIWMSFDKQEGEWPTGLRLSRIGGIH
Sequence of S. aureus SPase (P0A070 whole entry): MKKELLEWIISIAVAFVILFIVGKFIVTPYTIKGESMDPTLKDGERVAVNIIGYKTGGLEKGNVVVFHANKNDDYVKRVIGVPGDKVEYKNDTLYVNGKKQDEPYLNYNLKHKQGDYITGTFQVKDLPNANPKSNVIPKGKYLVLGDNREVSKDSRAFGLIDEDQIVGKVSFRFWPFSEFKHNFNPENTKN

Compound: CCCCCCCCCCCCCCCC(=O)N(C)[C@H](CO)C(=O)N[C@H](C)C(=O)NCC(=O)N(C)[C@@H]1C(=O)N[C@@H](C)C(=O)N[C@H](C(=O)NCC=O)Cc2ccc(O)c(c2)-c2cc1ccc2O [Compound 5]
- more potent than arylomycin A-C16 (E. coli SPase): 5 fold
- more potent than arylomycin A-C16 (S. aureus SPase): 40 fold

Compound: CCCCCCCCCCCCCCCC(=O)N(C)[C@H](CO)C(=O)N[C@H](C)C(=O)NCC(=O)N(C)[C@@H]1C(=O)N[C@@H](C)C(=O)N[C@H](C(=O)NCP(=O)(O)O)Cc2ccc(O)c(c2)-c2cc1ccc2O [Compound 1]
- loss of activity relative to parent arylomycin A-C16 (E. coli SPase): ~ 10 fold
- loss of activity relative to parent arylomycin A-C16 (S. aureus SPase): ~ 10 fold

Compound: CCCCCCCCCCCCCCCC(=O)N(C)[C@H](CO)C(=O)N[C@H](C)C(=O)NCC(=O)N(C)[C@@H]1C(=O)N[C@@H](C)C(=O)N[C@H](C(=O)O)Cc2ccc(O)c(c2)-c2cc1ccc2OP(=O)(O)O [Compound 7]
- IC50 difference relative to arylomycin A-C16 (E. coli SPase): ≤ 2 fold
- IC50 difference relative to arylomycin A-C16 (S. aureus SPase): ≤ 2 fold

Compound: CCCCCCCCCCCCCCCC(=O)N(C)[C@H](CO)C(=O)N[C@H](C)C(=O)NCC(=O)N(C)[C@@H]1C(=O)N[C@@H](C)C(=O)N[C@H](C(=O)O)Cc2ccc(O)c(c2)-c2cc1ccc2OCCO [Compound 11]
- IC50 difference relative to arylomycin A-C16 (E. coli SPase): ≤ 2 fold
- IC50 difference relative to arylomycin A-C16 (S. aureus SPase): ≤ 2 fold

Compound: CCCCCCCCCCCCCCCC(=O)N(C)[C@H](CO)C(=O)N[C@H](C)C(=O)NCC(=O)N(C)[C@@H]1C(=O)N[C@@H](C)C(=O)N[C@H](C(=O)O)Cc2ccc(O)c(c2)-c2cc1ccc2O [arylomycin A-C16]
- MIC S. aureus [1]: >64 µg/mL
- MIC MRSA ([2]; listed as A-C16): >64 µg/mL
- MIC MRSA [2]: no detectable activity
- MIC E. coli (E. coli (MG1655)): >64 µg/mL

Compound: CCCCCCCCCCCCCCCC(=O)N(C)[C@H](CO)C(=O)N[C@H](C)C(=O)NCC(=O)N(C)[C@@H]1C(=O)N[C@@H](C)C(=O)N[C@H](C(=O)NCP(=O)(Oc2ccccc2)Oc2ccccc2)Cc2ccc(O)c(c2)-c2cc1ccc2O [Compound 4]
- change of affinity/activity relative to parent, in words (E. coli SPase): lost virtually all affinity
- change of affinity/activity relative to parent, in words (S. aureus SPase): lost virtually all affinity

Compound: CCCCCCCCCCCCCCCC(=O)N(C)[C@H](CO)C(=O)N[C@H](C)C(=O)NCC(=O)N(C)[C@@H]1C(=O)N[C@@H](C)C(=O)N[C@H](C(=O)O)Cc2ccc(O)c(c2)-c2cc1ccc2OCCN [Compound 9]
- IC50 difference relative to arylomycin A-C16 (E. coli SPase): ≤ 2 fold
- IC50 difference relative to arylomycin A-C16 (S. aureus SPase): ≤ 2 fold

Compound: CCCCCCCCCCCCCCCC(=O)N(C)[C@H](CO)C(=O)N[C@H](C)C(=O)NCC(=O)N(C)[C@@H]1C(=O)N[C@@H](C)C(=O)N[C@H](CC(=O)NCC=O)Cc2ccc(O)c(c2)-c2cc1ccc2O [Compound 6]
- change of affinity/activity relative to parent, in words (E. coli SPase): lost virtually all activity
- change of affinity/activity relative to parent, in words (S. aureus SPase): lost virtually all activity

Compound: CCCCCCCCCCCCCCCC(=O)N(C)[C@H](CO)C(=O)N[C@H](C)C(=O)NCC(=O)N(C)[C@@H]1C(=O)N[C@@H](C)C(=O)N[C@H](C(=O)NCC=O)Cc2ccc(O)c(c2)-c2cc1ccc2OP(=O)(OCc1ccccc1)OCc1ccccc1 [Compound 8]
- lower affinity on the glycyl aldehyde backbone (E. coli SPase; Hpg modification on glycyl aldehyde scaffold (of 5)): 15 fold

— article PMC3981466 (Bioorganic & medicinal chemistry letters, 2013)
